Laboratory results reported in patent US9963464B2, “Macrocyclic compounds” (Bayer Pharma Aktiengesellschaft, priority 2014, dated 2018).
Like-named read-outs stand apart in the source and are kept apart here.

Columns and labels:
CDK9/CycT1 = target: T1, CDK9/CycT1 (Homo sapiens, UniProt P50750); test: CDK9/CycT1 high ATP kinase assay (TR-FRET, Method 1b); assay type: biochemical; conditions: for IC50: Method 1b, 2 mM ATP; for Selectivity high ATP CDK9 over high ATP CDK2: IC50 (high ATP CDK2)/IC50 (high ATP CDK9): Methods 1b and 2b, minimal values where CDK9 IC50 is at the assay limit
T1 construct: Recombinant full-length His-tagged human CDK9 and CycT1; His; purchased Invitrogen PV4131; host or cells: insect cells
T1 sequence (P50750 whole entry): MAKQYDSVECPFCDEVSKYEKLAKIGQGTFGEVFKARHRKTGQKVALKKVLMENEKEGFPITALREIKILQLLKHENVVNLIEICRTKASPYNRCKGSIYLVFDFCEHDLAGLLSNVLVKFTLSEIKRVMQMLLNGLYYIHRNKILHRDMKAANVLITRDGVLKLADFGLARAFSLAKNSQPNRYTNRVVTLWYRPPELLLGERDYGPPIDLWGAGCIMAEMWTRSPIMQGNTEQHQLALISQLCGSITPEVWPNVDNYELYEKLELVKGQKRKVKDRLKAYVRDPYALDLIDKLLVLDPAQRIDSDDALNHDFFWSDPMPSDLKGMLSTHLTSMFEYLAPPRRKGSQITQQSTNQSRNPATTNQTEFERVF
T1 sequence (O60563 whole entry partner): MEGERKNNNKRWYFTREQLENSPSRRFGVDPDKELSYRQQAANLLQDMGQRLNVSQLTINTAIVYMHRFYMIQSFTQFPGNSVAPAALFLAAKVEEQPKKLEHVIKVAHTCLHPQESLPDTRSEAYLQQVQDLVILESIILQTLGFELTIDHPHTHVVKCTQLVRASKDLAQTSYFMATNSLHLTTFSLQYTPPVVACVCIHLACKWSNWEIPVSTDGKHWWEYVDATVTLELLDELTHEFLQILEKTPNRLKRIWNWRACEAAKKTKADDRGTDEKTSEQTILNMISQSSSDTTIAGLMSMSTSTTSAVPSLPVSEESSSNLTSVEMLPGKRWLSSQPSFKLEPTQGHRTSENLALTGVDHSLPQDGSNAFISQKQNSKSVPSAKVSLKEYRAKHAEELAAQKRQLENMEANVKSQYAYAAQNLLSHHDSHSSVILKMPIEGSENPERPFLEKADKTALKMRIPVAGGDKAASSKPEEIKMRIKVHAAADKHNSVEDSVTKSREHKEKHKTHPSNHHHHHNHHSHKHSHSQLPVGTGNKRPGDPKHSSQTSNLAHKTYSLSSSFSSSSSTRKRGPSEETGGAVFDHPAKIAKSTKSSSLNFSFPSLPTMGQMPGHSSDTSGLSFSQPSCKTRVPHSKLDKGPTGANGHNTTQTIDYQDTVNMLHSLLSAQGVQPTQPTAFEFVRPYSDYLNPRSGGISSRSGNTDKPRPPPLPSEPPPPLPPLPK
Procedure: 1b. CDK9/CycT1 High ATP Kinase Assay
CDK9/CycT1-inhibitory activity of compounds of the present invention at a high ATP concentration after preincubation of enzyme and test compounds was quantified employing the CDK9/CycT1 TR-FRET assay as described in the following paragraphs.
Recombinant full-length His-tagged human CDK9 and CycT1, expressed in insect cells and purified by Ni-NTA affinity chromatography, were purchase from Invitrogen (Cat. No PV4131). As substrate for the kinase reaction biotinylated peptide biotin-Ttds-YISPLKSPYKISEG (C-terminus in amid form) was used which can be purchased e.g. from the company JERINI peptide technologies (Berlin, Germany). For the assay 50 nl of a 100 fold concentrated solution of the test compound in DMSO was pipetted into a black low volume 384 well microtiter plate (Greiner Bio-One, Frickenhausen, Germany), 2 μl of a solution of CDK9/CycT1 in aqueous assay buffer [50 mM Tris/HCl pH 8.0, 10 mM MgCl2, 1.0 mM dithiothreitol, 0.1 mM sodium ortho-vanadate, 0.01% (v/v) Nonidet-P40 (Sigma)] were added and the mixture was incubated for 15 min at 22° C. to allow pre-binding of the test compounds to the enzyme before the start of the kinase reaction. […] The concentration of CDK9/CycT1 was adjusted depending of the activity of the enzyme lot and was chosen appropriate to have the assay in the linear range, typical concentrations were in the range of 0.5 μg/mL. The reaction was stopped by the addition of 5 μl of a solution of TR-FRET detection reagents (0.2 μM streptavidine-XL665 [Cisbio Bioassays, Codolet, France] and 1 nM anti-RB(pSer807/pSer811)-antibody from BD Pharmingen [#558389] and 1.2 nM LANCE EU-W1024 labeled anti-mouse IgG antibody [Perkin-Elmer, product no. AD0077]) in an aqueous EDTA-solution (100 mM EDTA, 0.2% (w/v) bovine serum albumin in 100 mM HEPES pH 7.5).
The resulting mixture was incubated 1 h at 22° C. to allow the formation of complex between the phosphorylated biotinylated peptide and the detection reagents. Subsequently the amount of phosphorylated substrate was evaluated by measurement of the resonance energy transfer from the Eu-chelate to the streptavidine-XL. Therefore, the fluorescence emissions at 620 nm and 665 nm after excitation at 350 nm was measured in a HTRF reader, e.g. a Rubystar (BMG Labtechnologies, Offenburg, Germany) or a Viewlux (Perkin-Elmer). The ratio of the emissions at 665 nm and at […] was taken as the measure for the amount of phosphorylated substrate. The data were normalised (enzyme reaction without inhibitor=0% inhibition, all other assay components but no enzyme=100% inhibition).

HeLa cells = test: Proliferation assay HeLa; assay type: cell-based, human; conditions: 4 days, crystal violet, read-out: Inhibition of HeLa cell proliferation IC50
Procedure: Cultivated tumour cells (HeLa, human cervical tumour cells, ATCC CCL-2; NCI-H460, human non-small cell lung carcinoma cells, ATCC HTB-177; A2780, human ovarian carcinoma cells, ECACC #93112519; DU 145, hormone-independent human prostate carcinoma cells, ATCC HTB-81; HeLa-MaTu-ADR, multidrug-resistant human cervical carcinoma cells, EPO-GmbH Berlin; Caco-2, human colorectal carcinoma cells, ATCC HTB-37; B16F10, mouse melanoma cells, ATCC CRL-6475) were plated at a density of 5,000 cells/well (DU145, HeLa-MaTu-ADR), 3,000 cells/well (NCI-H460, HeLa), 2,500 cells/well (A2780), 1,500 cells/well (Caco-2), or 1,000 cells/well (B16F10) in a 96-well multititer plate in 200 μL of their respective growth medium supplemented 10% fetal calf serum. After 24 hours, the cells of one plate (zero-point plate) were stained with crystal violet (see below), while the medium of the other plates was replaced by fresh culture medium (200 μl), to which the test substances were added in various concentrations (0 μM, as well as in the range of 0.001-10 μM). The cells were incubated for 4 days in the presence of test substances. Cell proliferation was determined by staining the cells with crystal violet: the cells were fixed by adding 20 μl/measuring point of an 11% glutaric aldehyde solution for 15 minutes at room temperature. After three washing cycles of the fixed cells with water, the plates were dried at room temperature. The cells were stained by adding 100 μl/measuring point of a 0.1% crystal violet solution (pH 3.0). After three washing cycles of the stained cells with water, the plates were dried at room temperature. The dye was dissolved by adding 100 μl/measuring point of a 10% acetic acid solution. The extinction was determined by photometry at a wavelength of 595 nm. The change of cell number, in percent, was calculated by normalization of the measured values to the extinction values of the zero-point plate (=0%) and the extinction of the untreated (0 μm) cells (=100%). The IC50 values (inhibitory concentration at 50% of maximal effect) were determined by means of a 4 parameter fit. Non-adherent MOLM-13 human acute myeloid leukemia cells (DSMZ ACC 554) were seeded at a density of 5,000 cells/well in a 96-well multititer plate in 100 μL of growth medium supplemented 10% fetal calf serum. After 24 hours, cell viability of one plate (zero-point plate) was determined with the Cell Titre-Glo Luminescent Cell Viability Assay (Promega), while 50 μL of test compound containing medium was added to the wells of the other plates (final concentrations in the range of 0.001-1 μM and DMSO controls). Cell viability was assessed after 72-hour exposure with the Cell Titre-Glo Luminescent Cell Viability Assay (Promega). IC50 values (inhibitory concentration at 50% of maximal effect) were determined by means of a 4 parameter fit on measurement data which were normalized to vehicle (DMSO) treated cells (=100%) and measurement readings taken immediately before compound exposure (=0%).

## CS(=N)(=O)Cc1cc2cc(c1)OCCCCOc1cc(F)ccc1-c1nc(ncc1F)N2 (racemic) [Example 1, (rac)-16,20-Difluoro-9-[(S-methylsulfonimidoyl)methyl]-2,3,4,5-tetrahydro-12H-13,17-(azeno)-11,7-(metheno)-1,6,12,14-benzodioxadiazacyclononadecine]
CDK9/CycT1
  IC50: 1.7 nM
  Selectivity high ATP CDK9 over high ATP CDK2: IC50 (high ATP CDK2)/IC50 (high ATP CDK9): 125.3
HeLa cells; Homo sapiens, HeLa, 96 h
  IC50: 8 nM

## CC(=O)N=S(C)(=O)Cc1cc2nc(c1)OCCCOc1cc(F)ccc1-c1cc(ncc1F)N2 (racemic) [Example 18, (rac)-N-[{[15,19-difluoro-3,4-dihydro-2H,11H-10,6-(azeno)-12,16-(metheno)-1,5,11,13-benzodioxadiazacyclooctadecin-8-yl]methyl}(methyl)oxido-λ^6-sulfanylidene]acetamide]
CDK9/CycT1
  IC50: 2.9 nM
  Selectivity high ATP CDK9 over high ATP CDK2: IC50 (high ATP CDK2)/IC50 (high ATP CDK9): 21.7
HeLa cells; Homo sapiens, HeLa, 96 h
  IC50: 10 nM

## C[S+]([O-])Cc1cc2nc(c1)OCCOc1cc(F)ccc1-c1cc(ncc1F)N2 (racemic) [Example 10, (rac)-14,18-difluoro-7-[(methylsulfinyl)methyl]-2,3-dihydro-10H-9,5-(azeno)-11,15-(metheno)-1,4,10,12-benzodioxadiazacycloheptadecine]
CDK9/CycT1
  IC50: 27.8 nM
  Selectivity high ATP CDK9 over high ATP CDK2: IC50 (high ATP CDK2)/IC50 (high ATP CDK9): 125.7
HeLa cells; Homo sapiens, HeLa, 96 h
  IC50: 195 nM

## CS(=O)(Cc1cc2nc(c1)OCCCOc1cc(F)ccc1-c1cc(ncc1F)N2)=NS(=O)(=O)CCN.O=C(O)C(F)(F)F (racemic) [Example 24, (rac)-2-{[{[15,19-difluoro-3,4-dihydro-2H,11H-10,6-(azeno)-12,16-(metheno)-1,5,11,13-benzodioxadiazacyclooctadecin-8-yl]methyl}(methyl)oxido-λ^6-sulfanylidene]sulfamoyl}ethanaminium trifluoroacetate]
CDK9/CycT1
  IC50: 1.8 nM
  Selectivity high ATP CDK9 over high ATP CDK2: IC50 (high ATP CDK2)/IC50 (high ATP CDK9): 90.4
HeLa cells; trifluoroacetate
  IC50: 82 nM

## CS(=N)(=O)Cc1cc2nc(c1)OCCOc1cc(F)ccc1-c1cc(ncc1F)N2 (racemic) [Example 11, (rac)-14,18-difluoro-7-[(S-methylsulfonimidoyl)methyl]-2,3-dihydro-10H-9,5-(azeno)-11,15-(metheno)-1,4,10,12-benzodioxadiazacycloheptadecine]
CDK9/CycT1
  IC50: 3 nM
  Selectivity high ATP CDK9 over high ATP CDK2: IC50 (high ATP CDK2)/IC50 (high ATP CDK9): 702
HeLa cells; Homo sapiens, HeLa, 96 h
  IC50: 94 nM

## CS(=O)(Cc1cc2cc(c1)OCCCOc1cc(F)ccc1-c1nc(ncc1F)N2)=NC(=O)C(F)(F)F (racemic) [Example 16, (rac)-N-[{[15,19-difluoro-3,4-dihydro-2H,11H-12,16-(azeno)-10,6-(metheno)-1,5,11,13-benzodioxadiazacyclooctadecin-8-yl]methyl}(methyl)oxido-λ^6-sulfanylidene]-2,2,2-trifluoroacetamide]
CDK9/CycT1
  IC50: 3.9 nM
  Selectivity high ATP CDK9 over high ATP CDK2: IC50 (high ATP CDK2)/IC50 (high ATP CDK9): 172
HeLa cells; Homo sapiens, HeLa, 96 h
  IC50: 10 nM

## CSCc1cc2nc(c1)OCCCCOc1cc(F)ccc1-c1cc(ncc1F)N2 [Example 12, 16,20-Difluoro-9-[(methylsulfanyl)methyl]-2,3,4,5-tetrahydro-12H-11,7-(azeno)-13,17-(metheno)-1,6,12,14-benzodioxadiazacyclononadecine]
CDK9/CycT1
  IC50: 11.8 nM
  Selectivity high ATP CDK9 over high ATP CDK2: IC50 (high ATP CDK2)/IC50 (high ATP CDK9): 75.7
HeLa cells; Homo sapiens, HeLa, 96 h
  IC50: 281 nM

## CS(=N)(=O)Cc1cc2cc(c1)OCCCOc1cc(F)ccc1-c1nc(ncc1F)N2 (racemic) [Example 15, (rac)-15,19-difluoro-8-[(S-methylsulfonimidoyl)methyl]-3,4-dihydro-2H,11H-12,16-(azeno)-10,6-(metheno)-1,5,11,13-benzodioxadiazacyclooctadecine]
CDK9/CycT1
  IC50: 1.9 nM
  Selectivity high ATP CDK9 over high ATP CDK2: IC50 (high ATP CDK2)/IC50 (high ATP CDK9): 123.6
HeLa cells; Homo sapiens, HeLa, 96 h
  IC50: 9 nM

## CS(=O)(=O)N=S(C)(=O)Cc1cc2nc(c1)OCCCOc1cc(F)ccc1-c1cc(ncc1F)N2 (racemic) [Example 22, (rac)-N-[{[15,19-difluoro-3,4-dihydro-2H,11H-10,6-(azeno)-12,16-(metheno)-1,5,11,13-benzodioxadiazacyclooctadecin-8-yl]methyl}(methyl)oxido-λ^6-sulfanylidene]methanesulfonamide]
CDK9/CycT1
  IC50: 2.7 nM
  Selectivity high ATP CDK9 over high ATP CDK2: IC50 (high ATP CDK2)/IC50 (high ATP CDK9): 71.6
HeLa cells; Homo sapiens, HeLa, 96 h
  IC50: 17 nM

## CS(=N)(=O)Cc1cc2nc(c1)OCCCOc1cc(F)ccc1-c1cc(ncc1F)N2 (racemic) [Example 5, (rac)-15,19-Difluoro-8-[(S-methylsulfonimidoyl)methyl]-3,4-dihydro-2H,11H-10,6-(azeno)-12,16-(metheno)-1,5,11,13-benzodioxadiazacyclooctadecine]
CDK9/CycT1
  IC50: 0.98 nM
  Selectivity high ATP CDK9 over high ATP CDK2: IC50 (high ATP CDK2)/IC50 (high ATP CDK9): 20.8
HeLa cells; Homo sapiens, HeLa, 96 h
  IC50: 2 nM

## NCCS(=O)(=O)Cc1cc2nc(c1)OCCCOc1cc(F)ccc1-c1cc(ncc1F)N2 [Example 26, 2-({[15,19-difluoro-3,4-dihydro-2H,11H-10,6-(azeno)-12,16-(metheno)-1,5,11,13-benzodioxadiazacyclooctadecin-8-yl]methyl}sulfonyl)ethanamine]
CDK9/CycT1
  IC50: 3.4 nM
  Selectivity high ATP CDK9 over high ATP CDK2: IC50 (high ATP CDK2)/IC50 (high ATP CDK9): 13.0
HeLa cells; Homo sapiens, HeLa, 96 h
  IC50: 105 nM

## CS(=N)(=O)Cc1cc2nc(c1)OCCCCOc1cc(F)ccc1-c1cc(ncc1F)N2 (racemic) [Example 14, (rac)-16,20-difluoro-9-[(S-methylsulfonimidoyl)methyl]-2,3,4,5-tetrahydro-12H-11,7-(azeno)-13,17-(metheno)-1,6,12,14-benzodioxadiazacyclononadecine]
CDK9/CycT1
  IC50: 3.6 nM
  Selectivity high ATP CDK9 over high ATP CDK2: IC50 (high ATP CDK2)/IC50 (high ATP CDK9): 45.3
HeLa cells; Homo sapiens, HeLa, 96 h
  IC50: 11 nM
